# Data from patent US20260001828A1, “BIOBASED SURFACTANT AND ANTIOXIDANT” (BLOOM BIORENEWABLES SA, priority 2022, published 2026).
# Legend:
# [1] = DPPH free radical antioxidant activity test (UV/visible spectrophotometry, 517 nm); assay type: biochemical
# Method: The antioxidant activity is assessed by measuring the capacity of the compound to react with a free radical (here 2,2-diphenyl-1-picrylhydrazyl also known as DPPH). […] Butylated hydroxytoluene (BHT) and vitamin E were used as […] substances (positive control) and glycerol as negative control (see FIGS. 3 and 4).
# [2] = Surface tension by pendant drop method, water/air interface; assay type: physicochemical
# Method: Surface tension measurements were performed using the pendant drop method by Kruss EasyDrop Standard drop shape analysis system. […]
Compound,inhibition rate ([1]; concentration of 5 μg/mL),inhibition rate ([1]; concentration of 10 μg/mL),inhibition rate ([1]; concentration of 50 μg/mL),Water/air interface (surface tension) ([2]; concentration 0.10 wt %),further results
CCCc1cc(OC)c(O)c(OC)c1 [4-propylsyringol],65%,84%,85%,48.3 mN/m,Water/air interface (surface tension) ([2]; concentration 0.50 wt %): 34.9 mN/m; Water/air interface (surface tension) ([2]; concentration 1.00 wt %): 32.3 mN/m
"Cc1cc(C(C)(C)C)c(O)c(C(C)(C)C)c1 [BHT, Butylated hydroxytoluene]",32%,54%,85%,–,–
"CCCCC(CC)COC(=O)CC(C(=O)OCC(CC)CCCC)S(=O)(=O)[O-].[Na+] (centres unmarked) [DOSS, Dioctyl Sodium Sulfosuccinate]",–,–,–,–,Water/air interface (surface tension) ([2]; concentration 0.20 wt %): 51 mN/m
"CCCc1cc(OC)c([O-])c(OC)c1.[Na+] [PSNa, 4-propylsyringol sodium salt]",–,–,–,45.1 mN/m,Water/air interface (surface tension) ([2]; concentration 0.50 wt %): 39.8 mN/m; Water/air interface (surface tension) ([2]; concentration 1.00 wt %): 33.8 mN/m
"CCCCCCCCCCCCOS(=O)(=O)[O-].[Na+] [SLS, sodium lauryl sulfate]",–,–,–,–,Water/air interface (surface tension) ([2]; concentration 0.20 wt %): 35.4 mN/m
Sodium linear alkylbenzenesulfonate [NaLAS],–,–,–,33 mN/m,–
nonylphenol ethoxylate [NPE],–,–,–,–,Water/air interface (surface tension) ([2]; concentration 0.02 wt %): 36 mN/m
sodium lauryl ether sulfate [SLES],–,–,–,–,Water/air interface (surface tension) ([2]; concentration 0.02 wt %): 33.8 mN/m
vitamin E,28%,61%,84%,–,–
